Common to all, as to assay type: cell-based
The test system of one test is IL-6 (THP-1 cells). Put plainly: Inhibition of IL-6 in LPS-stimulated THP-1 monocytes (HTRF). The note with it: Homo sapiens; for EC50: LPS 500 ng/mL, IL-6 by HTRF; for inhibition at 10 µM: LPS stimulated, IL-6, at 10 μM, read-out: percent inhibition at 10 μM (given for EC50 of >10 μM). The gist of the method:
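THP-1 cells, serum-starved in 1% FBS for 24 h, were pre-incubated 2 h with compound (10-point, 1:3 from 10 μM, 0.1% DMSO), then stimulated with 500 ng/mL LPS for 22 h at 37 °C. IL-6 was quantified by HTRF 665/620 ratio. EC50 was fitted from DMSO-normalized data; above 10 μM, % inhibition at 10 μM is given.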

Test [1] deals with primary human fibroblasts derived from IPF patients (LL29 cells), α-smooth muscle actin (αSMA). Put plainly: Inhibition of the fibrotic process: TGF-β1-treated primary human fibroblasts from IPF patients, αSMA staining. The note with it: Fibroblast, 96 h, 4 days; for EC50: LL29 fibroblasts from IPF patients, TGF-β1 20 ng/mL, inhibition of fibrotic process; for inhibition at 10 µM: LL29 fibroblasts, TGF-β1 treated, read-out: percent inhibition at 10 μM (given for EC50 of >10 μM). In outline:
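LL29 IPF-patient lung fibroblasts in 1% FBS F12 were given compounds (11-point, 10 μM to […], 0.1% DMSO) plus TGF-β1 20 ng/mL for 4 days at 37 °C. αSMA-positive fraction of live (SYTOX-negative) cells was imaged and normalized to TGF-β1/DMSO wells. EC50 by non-linear regression, or % inhibition at 10 μM if >10 μM.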

In a further test the test system is SW480 colon cancer cells. Put plainly: Cell viability assay (CellTiter-Blue), four days. The note with it: Homo sapiens, 96 h; for EC50: CellTiter-Blue cell viability; for inhibition at 10 µM: read-out: percent inhibition at 10 μM (given for EC50 of >10 μM). In outline: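 SW480 colon cancer cells (~2×10^3/well) exposed to 8-point 1:3 dilutions from 10 μM to 0.0045 μM for four days at 37 °C/5% CO2. Viability read by resazurin (CellTiter-Blue) fluorescence after ~3 h, Ex 560/Em 590 nm. EC50 from non-linear regression; percent inhibition at 10 μM given when EC50 >10 μM.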

This passage reports EC50 and inhibition results from US10329309B2, “3-(3H-imidazo[4,5-B]pyridin-2-yl)-1H-pyrazolo[4,3-B]pyridines and therapeutic uses thereof” (Samumed, LLC, priority 2015, dated 2019).

A value given as a limit tells only on which side of the number the result lay.

Take `O=C(CC1CCNCC1)Nc1cncc(-c2ccc3[nH]nc(-c4nc5c(-c6ccccn6)ccnc5[nH]4)c3n2)c1` [Compound 593, 2-(Piperidin-4-yl)-N-(5-(3-(7-(pyridin-2-yl)-3H-imidazo[4,5-b]pyridin-2-yl)-1H-pyrazolo[4,3-b]pyridin-5-yl)pyridin-3-yl)acetamide]: the concentration for a half-maximal effect (EC50) is greater than 10 µM in the test with IL-6 (THP-1 cells), 0.913 µM in test [1] and greater than 10 µM in the test on SW480 colon cancer cells. The results for the inhibition at 10 µM with IL-6 (THP-1 cells) and with SW480 colon cancer cells were 41.8% and 16.7%, respectively.
Turning to `c1cc(N2CCCCC2)c2nc(-c3n[nH]c4ccc(-c5cncc(OCCN6CCCC6)c5)nc34)[nH]c2n1` [Compound 610, 3-(7-(Piperidin-1-yl)-3H-imidazo[4,5-b]pyridin-2-yl)-5-(5-(2-(pyrrolidin-1-yl)ethoxy)pyridin-3-yl)-1H-pyrazolo[4,3-b]pyridine], the values for the half-maximal effective concentration (EC50) (in the test on IL-6 (THP-1 cells); in test [1]; with SW480 colon cancer cells) were greater than 10 µM, 2.27 µM and greater than 10 µM, respectively. Moreover, the inhibition at 10 µM in the test on IL-6 (THP-1 cells) is 25.3%; in the test on SW480 colon cancer cells, 3.5%.
In the case of `COc1cncc(-c2ccc3[nH]nc(-c4nc5c(N6CCCCC6)ccnc5[nH]4)c3n2)c1` [Compound 612, 5-(5-Methoxypyridin-3-yl)-3-(7-(piperidin-1-yl)-3H-imidazo[4,5-b]pyridin-2-yl)-1H-pyrazolo[4,3-b]pyridine], the half-maximal effective concentration (EC50) (in the test with IL-6 (THP-1 cells); in test [1]; with SW480 colon cancer cells) was greater than 10 µM each time. In addition, the inhibition at 10 µM in the test on IL-6 (THP-1 cells) is 44.6%; in test [1] it was 30.3%; in the test on SW480 colon cancer cells, 6.1%.
Regarding `Cc1cn(-c2ccnc3[nH]c(-c4n[nH]c5ccc(C6=CCNCC6)nc45)nc23)cn1` [Compound 618, 3-(7-(4-Methyl-1H-imidazol-1-yl)-3H-imidazo[4,5-b]pyridin-2-yl)-5-(1,2,3,6-tetrahydropyridin-4-yl)-1H-pyrazolo[4,3-b]pyridine], the EC50 is 1.55 µM in the test with IL-6 (THP-1 cells), greater than 10 µM in test [1] and greater than 10 µM with SW480 colon cancer cells. Further, the values for the inhibition at 10 µM (in test [1]; with SW480 colon cancer cells) were 0% and 2.8%, respectively.
For `Cc1cn(-c2ccnc3[nH]c(-c4n[nH]c5ccc(-c6cncc(N7CC(N)C7)n6)nc45)nc23)cn1` [Compound 622, 1-(6-(3-(7-(4-Methyl-1H-imidazol-1-yl)-3H-imidazo[4,5-b]pyridin-2-yl)-1H-pyrazolo[4,3-b]pyridin-5-yl)pyrazin-2-yl)azetidin-3-amine], the EC50 in the test with IL-6 (THP-1 cells) is 0.92 µM; in test [1] it was 4.82 µM; with SW480 colon cancer cells, greater than 10 µM. The inhibition at 10 µM in the test on SW480 colon cancer cells was determined as 4.7%.
For the compound `Cc1cn(-c2ccnc3[nH]c(-c4n[nH]c5ccc(-c6cncc(OCCN(C)C)c6)nc45)nc23)cn1` [Compound 627, N,N-Dimethyl-2-((5-(3-(7-(4-methyl-1H-imidazol-1-yl)-3H-imidazo[4,5-b]pyridin-2-yl)-1H-pyrazolo[4,3-b]pyridin-5-yl)pyridin-3-yl)oxy)ethan-1-amine], the EC50 in the test on IL-6 (THP-1 cells) was 0.404 µM; in test [1] it was 4.8 µM; with SW480 colon cancer cells it was greater than 10 µM. Also, the inhibition at 10 µM in the test with SW480 colon cancer cells was determined as 14.8%.
As for `CN1CCN(c2ccnc3[nH]c(-c4n[nH]c5ccc(-c6cncc(OC7CCCCC7)c6)nc45)nc23)CC1` [Compound 639, 5-(5-(Cyclohexyloxy)pyridin-3-yl)-3-(7-(4-methylpiperazin-1-yl)-3H-imidazo[4,5-b]pyridin-2-yl)-1H-pyrazolo[4,3-b]pyridine], the values for the half-maximal effective concentration (EC50) (with IL-6 (THP-1 cells); in test [1]; with SW480 colon cancer cells) were greater than 10 µM, 3.27 µM and 5.85 µM, respectively. Moreover, the inhibition at 10 µM in the test on IL-6 (THP-1 cells) was 33.5%.
As to `CN1CCN(c2ccnc3[nH]c(-c4n[nH]c5ccc(-c6cnccn6)nc45)nc23)CC1` [Compound 648, 3-(7-(4-Methylpiperazin-1-yl)-3H-imidazo[4,5-b]pyridin-2-yl)-5-(pyrazin-2-yl)-1H-pyrazolo[4,3-b]pyridine], the results for the concentration for a half-maximal effect (EC50) (in the test on IL-6 (THP-1 cells); in test [1]; in the test with SW480 colon cancer cells) were greater than 10 µM, greater than 10 µM and 3.91 µM, respectively. In addition, the figures for the inhibition at 10 µM (in the test on IL-6 (THP-1 cells); in test [1]) were 9.9% and 0%, respectively.
In the case of `c1cnc2[nH]c(-c3n[nH]c4ccc(-c5cn[nH]c5)nc34)nc2c1` [Compound 651, 3-(3H-Imidazo[4,5-b]pyridin-2-yl)-5-(1H-pyrazol-4-yl)-1H-pyrazolo[4,3-b]pyridine], the half-maximal effective concentration (EC50) (with IL-6 (THP-1 cells); in test [1]; in the test with SW480 colon cancer cells) was greater than 10 µM throughout. Further, the inhibition at 10 µM in the test with IL-6 (THP-1 cells) is 0%; in test [1], 28.6%; in the test on SW480 colon cancer cells, 3.1%.
With `c1cnc2[nH]c(-c3n[nH]c4ccc(-c5cncc(OC6CCNCC6)c5)nc34)nc2c1` [Compound 656, 3-(3H-Imidazo[4,5-b]pyridin-2-yl)-5-(5-(piperidin-4-yloxy)pyridin-3-yl)-1H-pyrazolo[4,3-b]pyridine], the results for the concentration giving a half-maximal response (EC50) (in the test with IL-6 (THP-1 cells); in test [1]; in the test with SW480 colon cancer cells) were 7.6 µM, 6.27 µM and greater than 10 µM, respectively. Also, in the test on SW480 colon cancer cells, the inhibition at 10 µM was 11.4%.
In the case of `Oc1cncc(-c2ccc3[nH]nc(-c4nc5cccnc5[nH]4)c3n2)c1` [Compound 661, 5-(3-(3H-Imidazo[4,5-b]pyridin-2-yl)-1H-pyrazolo[4,3-b]pyridin-5-yl) pyridin-3-ol], the concentration for a half-maximal effect (EC50) (in the test with IL-6 (THP-1 cells); in test [1]; in the test on SW480 colon cancer cells) was greater than 10 µM each time. In addition, the inhibition at 10 µM in the test on IL-6 (THP-1 cells) worked out at 27.9%; in test [1], 6.2%; in the test on SW480 colon cancer cells it was 13%.
For `O=C(CC1CCNCC1)Nc1cncc(-c2ccc3[nH]nc(-c4nc5c(-c6ccsc6)ccnc5[nH]4)c3n2)c1` [Compound 673, 2-(Piperidin-4-yl)-N-(5-(3-(7-(thiophen-3-yl)-3H-imidazo[4,5-b]pyridin-2-yl)-1H-pyrazolo[4,3-b]pyridin-5-yl)pyridin-3-yl)acetamide], the EC50 is greater than 10 µM with IL-6 (THP-1 cells), 4.75 µM in test [1] and greater than 10 µM in the test with SW480 colon cancer cells. The inhibition at 10 µM in the test with IL-6 (THP-1 cells) came out at 35.9%; with SW480 colon cancer cells, 0.6%.
As for `Cc1ncc(-c2ccc3[nH]nc(-c4nc5c(-c6ccoc6)ccnc5[nH]4)c3n2)n1C` [Compound 685, 5-(1,2-Dimethyl-1H-imidazol-5-yl)-3-(7-(furan-3-yl)-3H-imidazo[4,5-b]pyridin-2-yl)-1H-pyrazolo[4,3-b]pyridine], the values for the EC50 (with IL-6 (THP-1 cells); in test [1]; with SW480 colon cancer cells) were greater than 10 µM, greater than 10 µM and 4.19 µM, respectively. Besides, the results for the inhibition at 10 µM (in the test with IL-6 (THP-1 cells); in test [1]) were 24.3% and 0%, respectively.
As for `c1cc(-c2ccoc2)c2nc(-c3n[nH]c4ccc(-c5cncc(OCCN6CCCC6)c5)nc34)[nH]c2n1` [Compound 690, 3-(7-(Furan-3-yl)-3H-imidazo[4,5-b]pyridin-2-yl)-5-(5-(2-(pyrrolidin-1-yl)ethoxy)pyridin-3-yl)-1H-pyrazolo[4,3-b]pyridine], the 50% effective concentration (EC50) with IL-6 (THP-1 cells) was greater than 10 µM; in test [1], 4.75 µM; with SW480 colon cancer cells, greater than 10 µM. Besides, the figures for the inhibition at 10 µM in the test on IL-6 (THP-1 cells) and in the test with SW480 colon cancer cells were 42.9% and 26.6%, respectively.
`COc1cncc(-c2ccc3[nH]nc(-c4nc5c(-c6ccoc6)ccnc5[nH]4)c3n2)c1` [Compound 692, 3-(7-(Furan-3-yl)-3H-imidazo[4,5-b]pyridin-2-yl)-5-(5-methoxypyridin-3-yl)-1H-pyrazolo[4,3-b]pyridine]: the EC50 was greater than 10 µM with IL-6 (THP-1 cells), 1.32 µM in test [1] and greater than 10 µM with SW480 colon cancer cells. Moreover, the inhibition at 10 µM with IL-6 (THP-1 cells) came to 39%; with SW480 colon cancer cells it was 17.6%.
For `Cn1cc(-c2ccc3[nH]nc(-c4nc5c(-c6cccs6)ccnc5[nH]4)c3n2)cn1` [Compound 700, 5-(1-Methyl-1H-pyrazol-4-yl)-3-(7-(thiophen-2-yl)-3H-imidazo[4,5-b]pyridin-2-yl)-1H-pyrazolo[4,3-b]pyridine], the EC50 with IL-6 (THP-1 cells) is greater than 10 µM; in test [1], 0.438 µM; in the test with SW480 colon cancer cells it was greater than 10 µM. Moreover, the inhibition at 10 µM in the test on IL-6 (THP-1 cells) stood at 0%; in the test on SW480 colon cancer cells, 0.1%.
For the compound `CN(C)CCOc1cncc(-c2ccc3[nH]nc(-c4nc5c(-c6cccs6)ccnc5[nH]4)c3n2)c1` [Compound 707, N,N-Dimethyl-2-((5-(3-(7-(thiophen-2-yl)-3H-imidazo[4,5-b]pyridin-2-yl)-1H-pyrazolo[4,3-b]pyridin-5-yl)pyridin-3-yl)oxy)ethan-1-amine], the half-maximal effective concentration (EC50) is greater than 10 µM in the test on IL-6 (THP-1 cells), 2.43 µM in test [1] and 3.87 µM in the test on SW480 colon cancer cells. In addition, the inhibition at 10 µM in the test on IL-6 (THP-1 cells) turned out to be 35.1%.
For `Cc1ccc(-c2ccnc3[nH]c(-c4n[nH]c5ccc(-c6cncc(OC7CCCCC7)c6)nc45)nc23)s1` [Compound 735, 5-(5-(Cyclohexyloxy)pyridin-3-yl)-3-(7-(5-methylthiophen-2-yl)-3H-imidazo[4,5-b]pyridin-2-yl)-1H-pyrazolo[4,3-b]pyridine], the EC50 in the test with IL-6 (THP-1 cells) is 1.79 µM; in test [1], 0.139 µM; in the test on SW480 colon cancer cells, greater than 10 µM. In addition, the inhibition at 10 µM in the test on SW480 colon cancer cells came to 10.9%.
